The values that follow come from patent US9067945B2, “Selective phosphodiesterase 9A inhibitors as medicaments for improving cognitive processes” (Boehringer Ingehleim International GmbH, priority 2002, dated 2015).

Data set [1] addresses PDE10A (Homo sapiens (Human), UniProt Q9Y233). As to the kind of experiment: PDE inhibition, recombinant PDE10A (SPA). It is filed as biochemical. To be noted: Isoenzyme PDE10A. An excerpt:
(§1) Recombinant PDE1C (GenBank/EMBL Accession Number: NM_005020, Loughney et al. J. Biol. Chem. 1996 271, 796-806), PDE2A (GenBank/EMBL Accession Number: NM_002599, Rosman et al. Gene 1997 191, 89-95), PDE3B (GenBank/EMBL Accession Number: NM_000922, Miki et al. Genomics 1996, 36, 476-485), PDE4B (GenBank/EMBL Accession Number: NM_002600, Obernolte et al. Gene. 1993, 129, 239-247), PDE5A (GenBank/EMBL Accession Number: NM_001083, Loughney et al. Gene 1998, 216, 139-147), PDE7B (GenBank/EMBL Accession Number: NM_018945, Hetman et al. Proc. Natl. Acad. Sci. U.S.A. 2000, 97, 472-476), PDE8A (GenBank/EMBL Accession Number: AF—056490, Fisher et al. Biochem. Biophys. Res. Commun. […]
(§2) The test substances are dissolved in 100% DMSO and serially diluted to determine their in vitro effect on PDE 9A. […] The plates are then measured for 30 s per well in a Microbeta scintillation counter (Wallac Inc., Atlanta, Ga.). IC50 values are determined from the graphical plot of the substance concentration versus the percentage inhibition.
(§3) The in vitro effect of test substances on recombinant PDE3B, PDE4B, PDE7B, PDE8A, PDE10A and PDE11A is determined in accordance with the assay protocol described above for PDE9A with the following adaptations: [5′,8-^3H] adenosine 3′,5′-cyclic phosphate (1 μCi/μL; Amersham Pharmacia Biotech., Piscataway, N.J.) is used as substrate. […]

Data set [2] addresses PDE4B (Homo sapiens (Human), UniProt Q07343). As to the kind of experiment: PDE inhibition, recombinant PDE4B (SPA). It is filed as biochemical. To be noted: Isoenzyme PDE4B.
Data set [3] relates to primary rat (E18) cortex cultures, intracellular cGMP. As to the kind of experiment: Increasing the intracellular neuronal cGMP concentration in cell cultures. To be noted: primary rat cortical neurons, incubation 20 min, FIG. 1. It is filed as cell-based. As to the method: Rat embryos (embryonic day E17-E19) were decapitated, and the heads were transferred into dissection dishes filled with dissection medium (DMEM, penicillin/streptomycin; both from Gibco). The scalp and the roof of the skull were removed, and the exposed brains were transferred into another Petri dish with dissection medium. Using a binocular microscope and two forceps, the cerebrum (cortex) was isolated and cooled to 4° C. with ice. This dissection and the isolation of the cortical neurons were then carried out in accordance with a standard protocol using the Papain kit (Worthington Biochemical Corporation, Lakewood, N.J. 08701, USA) (Huettner et al. J. Neurosci. 1986, 6, 3044-3060). The mechanically isolated cortical neurons were cultivated at 150,000 cells/well in 200 μl of neurobasal medium/well (neurobasal; B27 supplement; 2 mM L-glutamine; in the presence of penicillin/streptomycin; all agents from Gibco) in 96-well plates (pretreated with poly-D-lysine/100 μg/ml for 30 min) under standard conditions (37° C., 5% CO2) for 7 days. After 7 days, the medium was removed and the cells were washed with HBSS buffer (Hank's balanced salt solution, Gibco/BRL). […] Subsequently, the cells were lyzed in 200 μl of lysis buffer (cGMP kit code RPN 226; from Amersham Pharmacia Biotech.), and the cGMP concentration was measured as stated by the manufacturer. […]

Data set [4] concerns the target PDE7B (Homo sapiens (Human), UniProt Q9NP56). As to the kind of experiment: PDE inhibition, recombinant PDE7B (SPA). It is filed as biochemical. To be noted: Isoenzyme PDE7B.
Source text: as §1, §2, §3

Data set [5] deals with PDE2A (Homo sapiens (Human), UniProt O00408). Kind of data set: PDE inhibition, recombinant PDE2A (SPA). It is filed as biochemical. To be noted: Isoenzyme PDE2A.
Sequence of PDE2A (O00408 whole entry): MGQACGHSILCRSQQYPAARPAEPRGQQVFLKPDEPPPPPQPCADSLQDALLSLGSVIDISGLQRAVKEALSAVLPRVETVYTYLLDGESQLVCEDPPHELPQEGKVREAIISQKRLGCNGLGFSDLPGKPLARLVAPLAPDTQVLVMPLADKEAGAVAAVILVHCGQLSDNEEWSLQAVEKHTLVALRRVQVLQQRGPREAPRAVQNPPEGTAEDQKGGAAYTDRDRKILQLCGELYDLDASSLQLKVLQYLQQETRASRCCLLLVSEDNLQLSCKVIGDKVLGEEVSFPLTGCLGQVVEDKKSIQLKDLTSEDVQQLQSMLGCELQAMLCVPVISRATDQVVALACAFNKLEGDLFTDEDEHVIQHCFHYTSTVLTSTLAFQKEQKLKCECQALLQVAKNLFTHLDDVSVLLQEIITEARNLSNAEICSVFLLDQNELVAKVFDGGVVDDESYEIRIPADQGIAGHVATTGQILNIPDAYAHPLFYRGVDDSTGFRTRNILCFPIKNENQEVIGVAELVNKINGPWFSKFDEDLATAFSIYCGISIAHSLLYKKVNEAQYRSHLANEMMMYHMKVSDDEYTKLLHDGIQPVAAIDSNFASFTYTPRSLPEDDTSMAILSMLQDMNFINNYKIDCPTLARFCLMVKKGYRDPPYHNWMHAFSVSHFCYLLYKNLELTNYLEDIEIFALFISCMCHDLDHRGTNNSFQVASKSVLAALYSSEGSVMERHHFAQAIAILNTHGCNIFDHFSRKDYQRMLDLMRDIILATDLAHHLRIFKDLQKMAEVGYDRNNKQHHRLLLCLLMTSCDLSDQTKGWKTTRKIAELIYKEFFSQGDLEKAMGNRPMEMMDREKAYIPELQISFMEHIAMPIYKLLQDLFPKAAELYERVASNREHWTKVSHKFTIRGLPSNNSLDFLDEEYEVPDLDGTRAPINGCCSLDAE
Source text: as §1, §2, §3

Data set [6] concerns the target PDE3B (Homo sapiens (Human), UniProt Q13370). Kind of data set: PDE inhibition, recombinant PDE3B (SPA). It is filed as biochemical. The conditions noted are these: Isoenzyme PDE3B.
Source text: as §1, §2, §3

Data set [7] deals with PDE11 (Homo sapiens (Human), UniProt Q9HCR9). Kind of data set: PDE inhibition, recombinant PDE11A (SPA). The conditions noted are these: Isoenzyme PDE11, human. It is filed as biochemical.
Sequence of PDE11 (Q9HCR9 445-933, change not shown): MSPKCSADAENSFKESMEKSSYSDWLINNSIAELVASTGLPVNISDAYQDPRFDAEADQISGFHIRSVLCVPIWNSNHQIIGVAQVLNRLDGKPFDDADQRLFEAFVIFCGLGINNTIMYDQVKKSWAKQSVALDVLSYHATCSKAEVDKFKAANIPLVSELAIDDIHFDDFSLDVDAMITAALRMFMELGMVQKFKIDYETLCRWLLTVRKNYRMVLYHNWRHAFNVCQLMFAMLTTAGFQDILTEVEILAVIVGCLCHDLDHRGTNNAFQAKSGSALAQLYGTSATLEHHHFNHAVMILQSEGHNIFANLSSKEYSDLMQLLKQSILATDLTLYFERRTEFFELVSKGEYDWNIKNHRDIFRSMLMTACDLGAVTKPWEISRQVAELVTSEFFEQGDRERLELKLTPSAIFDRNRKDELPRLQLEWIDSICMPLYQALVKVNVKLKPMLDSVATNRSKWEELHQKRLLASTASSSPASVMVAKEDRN
Source text: as §1, §2, §3

The target of data set [8] is PDE5A (Homo sapiens (Human), UniProt O76074). As to the kind of experiment: PDE inhibition, recombinant PDE5A (SPA). The conditions noted are these: Isoenzyme PDE5A. It is filed as biochemical.
Source text: as §1, §2, §3

Data set [9] deals with rats, learning and memory. Kind of data set: Social recognition test. It is filed as in vivo, rat. The conditions noted are these: intraperitoneal 0.1-3.0 mg/kg directly after trial 1, retention time 24 hours, FIG. 3. The procedure: Adult rats housed in groups were placed singly in test cages 30 min before the start of the test. Four minutes before the start of the test, the test animal was put in an observation box. After this adaptation time, a juvenile animal was put in with the test animal and the absolute time for which the adult animal inspected the young one was measured for 2 min (trial 1). All behaviors clearly directed at the young animal were measured, i.e. anogenital inspection, pursuit and grooming, during which the old animal was no further than 1 cm from the young animal. The juvenile was then removed, and the adult was treated with Example 2 or vehicle and subsequently returned to its own cage. The test was repeated after a retention time of 24 hours (trial 2). A diminished social interaction time compared with trial 1 would indicate that the adult rat remembers the young animal.
The adult animals received intraperitoneal injections directly following trial 1 either with vehicle (10% ethanol, 20% Solutol, 70% physiological saline) or 0.1 mg/kg, 0.3 mg/kg, 1.0 mg/kg or 3.0 mg/kg of Example 2 dissolved in 10% ethanol, 20% Solutol, 70% physiological saline. […] They had consequently forgotten that they had already had contact with the young animal.

Data set [10] deals with rat hippocampus slices, fEPSP after weak tetanus. Kind of data set: Long-term potentiation in hippocampus slices. The conditions noted are these: 10 μM, flushed in 10 minutes before to 30 minutes after weak tetanus, vs 0.01% DMSO control, FIG. 2.
Data set [11] deals with PDE8A (Homo sapiens, UniProt O60658). As to the kind of experiment: PDE inhibition, recombinant PDE8A (SPA). It is filed as biochemical. The conditions noted are these: Isoenzyme PDE8A.
The target in data set [12] is Murine PDE9A (Mus musculus (Mouse), UniProt O70628). To be noted: concentrations below 200 μM; cited from earlier work.
Data set [13] concerns the target Human PDE9A (Homo sapiens (Human), UniProt O76083). To be noted: concentrations of up to 100 μM; cited from earlier work.

Molecules are shown by their SMILES. “Also recorded” adds a separate entry of the source.

Sequence of Human PDE9A (O76083 whole entry): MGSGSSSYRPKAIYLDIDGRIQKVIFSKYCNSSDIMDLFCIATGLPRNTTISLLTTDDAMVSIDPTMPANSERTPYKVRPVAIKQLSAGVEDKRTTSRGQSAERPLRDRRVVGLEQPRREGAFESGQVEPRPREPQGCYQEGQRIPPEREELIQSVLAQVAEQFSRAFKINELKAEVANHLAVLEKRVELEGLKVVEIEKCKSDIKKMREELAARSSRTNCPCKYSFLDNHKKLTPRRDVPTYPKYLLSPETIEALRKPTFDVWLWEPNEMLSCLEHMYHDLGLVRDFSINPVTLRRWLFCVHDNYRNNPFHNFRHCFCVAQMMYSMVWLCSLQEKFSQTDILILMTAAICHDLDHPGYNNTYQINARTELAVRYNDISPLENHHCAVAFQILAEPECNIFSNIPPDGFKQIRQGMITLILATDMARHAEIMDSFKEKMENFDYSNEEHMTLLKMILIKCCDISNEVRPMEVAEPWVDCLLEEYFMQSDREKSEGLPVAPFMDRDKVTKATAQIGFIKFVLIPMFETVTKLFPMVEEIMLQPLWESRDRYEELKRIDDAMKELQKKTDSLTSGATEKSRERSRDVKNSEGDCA
Sequence of PDE7B (Q9NP56 whole entry): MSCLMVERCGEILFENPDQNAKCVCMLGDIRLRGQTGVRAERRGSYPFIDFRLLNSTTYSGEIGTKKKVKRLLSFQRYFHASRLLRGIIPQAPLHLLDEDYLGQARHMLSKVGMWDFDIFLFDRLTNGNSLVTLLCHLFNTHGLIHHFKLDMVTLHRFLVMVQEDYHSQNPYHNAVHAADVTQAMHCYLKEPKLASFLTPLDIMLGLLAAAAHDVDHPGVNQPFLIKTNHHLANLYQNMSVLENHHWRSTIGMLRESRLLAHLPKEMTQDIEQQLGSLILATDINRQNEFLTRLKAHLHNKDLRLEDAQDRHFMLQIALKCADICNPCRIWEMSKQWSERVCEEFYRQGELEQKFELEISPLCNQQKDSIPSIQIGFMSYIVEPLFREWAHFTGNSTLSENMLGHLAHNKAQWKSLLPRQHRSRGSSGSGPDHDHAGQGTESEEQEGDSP
Sequence of PDE10A (Q9Y233 other isoform, or with tags, fused parts or gaps): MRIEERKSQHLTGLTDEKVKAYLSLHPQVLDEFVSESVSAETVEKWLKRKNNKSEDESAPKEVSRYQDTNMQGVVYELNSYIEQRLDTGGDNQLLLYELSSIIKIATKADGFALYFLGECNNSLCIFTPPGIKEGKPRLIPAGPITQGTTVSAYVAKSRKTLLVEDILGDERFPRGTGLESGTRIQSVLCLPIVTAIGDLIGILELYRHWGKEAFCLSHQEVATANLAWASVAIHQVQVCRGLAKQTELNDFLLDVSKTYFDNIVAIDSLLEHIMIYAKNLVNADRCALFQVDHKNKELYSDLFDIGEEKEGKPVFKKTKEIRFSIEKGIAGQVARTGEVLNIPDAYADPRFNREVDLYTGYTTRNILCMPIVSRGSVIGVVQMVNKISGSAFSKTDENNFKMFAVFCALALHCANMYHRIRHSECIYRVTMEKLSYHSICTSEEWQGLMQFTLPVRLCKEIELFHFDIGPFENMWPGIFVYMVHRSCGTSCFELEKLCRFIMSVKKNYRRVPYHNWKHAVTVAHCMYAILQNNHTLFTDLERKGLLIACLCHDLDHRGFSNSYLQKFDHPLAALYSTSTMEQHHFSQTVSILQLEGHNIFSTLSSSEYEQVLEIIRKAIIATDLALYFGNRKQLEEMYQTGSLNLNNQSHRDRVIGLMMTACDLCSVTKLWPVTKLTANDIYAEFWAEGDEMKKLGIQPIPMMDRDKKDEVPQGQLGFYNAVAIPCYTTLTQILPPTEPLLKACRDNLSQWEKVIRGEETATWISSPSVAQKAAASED
Sequence of PDE3B (Q13370 whole entry): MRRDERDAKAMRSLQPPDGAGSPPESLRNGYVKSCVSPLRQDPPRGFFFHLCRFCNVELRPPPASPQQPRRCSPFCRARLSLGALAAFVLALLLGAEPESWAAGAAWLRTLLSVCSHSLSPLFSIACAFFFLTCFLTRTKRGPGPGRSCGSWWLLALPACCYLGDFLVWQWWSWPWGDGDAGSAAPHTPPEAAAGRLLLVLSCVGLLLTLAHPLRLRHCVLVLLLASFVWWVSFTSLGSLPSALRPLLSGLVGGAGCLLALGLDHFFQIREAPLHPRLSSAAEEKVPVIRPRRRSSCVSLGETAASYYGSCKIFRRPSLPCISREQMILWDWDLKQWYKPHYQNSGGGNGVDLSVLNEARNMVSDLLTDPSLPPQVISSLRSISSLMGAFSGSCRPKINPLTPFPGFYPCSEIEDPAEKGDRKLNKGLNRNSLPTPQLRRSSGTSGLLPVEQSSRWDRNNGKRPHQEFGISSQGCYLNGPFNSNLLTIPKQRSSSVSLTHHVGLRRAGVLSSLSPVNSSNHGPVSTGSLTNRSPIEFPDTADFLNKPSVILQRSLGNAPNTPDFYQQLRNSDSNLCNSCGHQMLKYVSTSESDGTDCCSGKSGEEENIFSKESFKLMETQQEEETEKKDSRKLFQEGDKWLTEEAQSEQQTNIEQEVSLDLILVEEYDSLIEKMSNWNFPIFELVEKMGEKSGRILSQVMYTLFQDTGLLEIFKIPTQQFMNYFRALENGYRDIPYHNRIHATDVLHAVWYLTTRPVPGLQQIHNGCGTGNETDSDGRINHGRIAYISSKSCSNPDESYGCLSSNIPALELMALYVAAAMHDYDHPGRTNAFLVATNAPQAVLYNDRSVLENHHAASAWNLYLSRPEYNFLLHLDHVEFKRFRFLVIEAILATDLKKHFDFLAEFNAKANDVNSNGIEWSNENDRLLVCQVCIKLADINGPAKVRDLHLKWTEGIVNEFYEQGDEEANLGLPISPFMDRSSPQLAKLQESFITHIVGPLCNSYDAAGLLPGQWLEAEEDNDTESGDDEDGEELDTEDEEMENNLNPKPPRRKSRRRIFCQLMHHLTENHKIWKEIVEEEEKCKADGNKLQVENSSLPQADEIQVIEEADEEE
Sequence of PDE4B (Q07343 other isoform, or with tags, fused parts or gaps isoform Q07343-2): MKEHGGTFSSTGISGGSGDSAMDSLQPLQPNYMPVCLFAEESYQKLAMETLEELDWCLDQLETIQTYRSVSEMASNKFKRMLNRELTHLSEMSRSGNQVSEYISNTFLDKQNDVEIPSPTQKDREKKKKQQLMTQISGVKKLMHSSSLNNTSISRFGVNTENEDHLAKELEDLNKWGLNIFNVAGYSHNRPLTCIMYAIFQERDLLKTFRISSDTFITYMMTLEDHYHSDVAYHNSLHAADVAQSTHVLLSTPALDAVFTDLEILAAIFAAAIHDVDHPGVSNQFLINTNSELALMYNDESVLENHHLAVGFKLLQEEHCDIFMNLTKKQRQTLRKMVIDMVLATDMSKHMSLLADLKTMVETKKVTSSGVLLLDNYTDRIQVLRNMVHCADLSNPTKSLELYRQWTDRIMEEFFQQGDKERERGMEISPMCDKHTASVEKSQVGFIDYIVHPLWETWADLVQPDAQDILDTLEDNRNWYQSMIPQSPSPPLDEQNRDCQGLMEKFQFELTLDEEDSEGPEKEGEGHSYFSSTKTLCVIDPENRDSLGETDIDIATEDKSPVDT

One may read the melting point as the temperature of the solid-liquid transition. Turning to `O=c1[nH]c(CC2CCCCC2)nc2c1cnn2C1CCCC1`, the melting point is 147 °C.
One may read the IC50 as the concentration that inhibits the measured activity by half. Compound `CCC(CC)n1ncc2c(=O)[nH]c(CC3CCCCC3)nc21` [Example 2, 6-(Cyclohexylmethyl)-1-(1-ethylpropyl)-1,5-dihydro-4H-pyrazolo[3,4-d]-pyrimidin-4-one] came in with a melting point of 122 °C. In addition, in data set [1], the IC50 is over 4 µM. Besides, in data set [2], the IC50 is over 4 µM. Moreover, the “cGMP content of primary neurons” value in data set [3] is “increase in the cGMP content”. In addition, the IC50 in data set [4] was over 4 µM. The IC50 in data set [5] is over 4 µM. In data set [6], the IC50 was over 4 µM. In addition, in [7], the IC50 was over 4 µM. Further, the IC50 in [8] was over 4 µM. The “social interaction time in trial 2 compared with vehicle” value in [9] is “significantly reduced”. The “LTP / potentiation of fEPSP after weak tetanus” value in data set [10] is “significant increase in the LTP; also recorded: significantly augmented the increase in the fEPSP”. For the same compound, the IC50 in data set [11] was over 4 µM.
As for `CC(C)Cn1c(=O)n(C)c(=O)c2[nH]cnc21` [IBMX], in [12], the “inhibition of murine PDE9A” value is listed as “not inhibited”. Besides, the “inhibition on the isolated enzyme” value in [13] is “no inhibition”.
For the compound `CC(=O)Nc1ccc(-c2c[nH]c(=O)cn2)cc1` [SKF94120], the “inhibition on the isolated enzyme” value in [13] is recorded as “no inhibition”.
Consider `OCCN(CCO)c1nc(N2CCCCC2)c2nc(N(CCO)CCO)nc(N3CCCCC3)c2n1` [dipyridamole], for which, in data set [13], the “inhibition on the isolated enzyme” value is “no inhibition”.
Take `COc1ccc(C2CNC(=O)C2)cc1OC1CCCC1` (stereo not shown) [rolipram]: the “inhibition on the isolated enzyme” value in [13] is recorded as “no inhibition”.
In the case of `CCOC(=O)C1=C[C@]2(CC)CCCN3CCc4c(n1c1ccccc41)[C@@H]32` [vinpocetine], the “inhibition on the isolated enzyme” value in data set [13] is recorded as “no inhibition”.
